The record followed here is patent US20260048151A1, “HEMICYANINE PUSH-PULL DYES BASED ON CHROMENE ELECTRON DONORS” (UNIVERSITY OF CONNECTICUT, priority 2022, published 2026).

This data set has as its system intact mouse hearts. Description: Optical mapping of cardiac electrical activity in isolated mouse hearts. The protocol: All animal handling and procedures were performed in accordance with the guidelines from Directive 2010/63/EU of the European Parliament on the protection of animals used for scientific purposes. The experimental protocol was approved by the Italian Ministry of Health (protocol number 944/2018-PR). Transgenic mice (ChR2-mhc6-cre+) with cardiomyocyte-specific expression of Channelrhodopsin-2 (ChR2, H134R variant) were generated and employed in this study. Wild-type mice (C57BL/6J) and ChR2-mhc6-cre+ mice (6 months old) were heparinized (0.1 mL at 5000 units/mL) and anesthetized by inhaled isoflurane (5%). The excised heart was immediately bathed in Krebs-Henseleit (KH) solution and cannulated through the aorta. The KH buffer contained (in mM): 120 NaCl, 5 KCl, 2 MgS2 O4-7H2O, 20 NaHCO3, 1.2 NaH2PO4—H2O, 1.8 CaCl2 and 10 glucose, pH 7.4 when equilibrated with carbogen. Cardiac contraction was inhibited during the entire experiment with 1 μM blebbistatin (Enzo Life Sciences, Farmingdale, NY, USA) in the solution. The cannulated heart was perfused through the aorta (using a horizontal-Langendorff perfusion system) with the KH solution and then transferred to a custom-built optical mapping chamber at a constant flow of 2.5 mL/min at (36±0.5)° C. Two platinum electrodes were placed below the heart for monitoring cardiac electrical activity via electrocardiogram (ECG). 1 mL of perfusion solution containing the voltage sensitive dye (VSD; ElectroFluor730p: 10 μM; di-4-ANBDQPQ: 6 μg/mL) was bolus injected into the aorta. All the experiments were performed at (36±0.5° C.) within 1 hour after dye loading to avoid potential re-distribution of the dye and accumulation of phototoxic by-products.
Optical mapping was performed using a custom-made mesoscope. Stained mouse hearts were illuminated in a wide-field configuration using a 2× objective (TL2x-SAP, Thorlabs, Newton, NJ, USA) and employing four different LED operating at a wavelength centred at 730 nm, 625 nm, 590 nm and 530 nm (M730L5, M625L3, M590L4 and M530L4 Thorlabs, Newton, NJ, USA) followed by excitation band-pass filters at 730/39 nm, 640/40 nm, 589/15 nm (FF01-730/39-25, FF01-640/40-25, FF01-589/15-25, Semrock) and 530/43 nm (MF530-43, Thorlabs) respectively. di-4-ANBDQPQ stained hearts were excited at 625 nm (0.875 mW/mm^2) and a dichroic beam splitter (FF685-Di02-25×36, Semrock) followed by a band-pass filter at 775/140 nm (FF01-775/140-25, Semrock) was used for collecting the emitted fluorescent signal. […] Light intensities were measured at sample site using a photodiode sensor (PD300-3W, Ophir Optronics, Jerusalem, Israel). […]

Values joined by “and” are separate entries in the source; they are usually repeats but may differ in a detail not shown here. Equal values may be shown once.

Turning to `CCCCCCN(CCCCCC)c1ccc2c(c1)OCC(/C=C/c1c(F)c[n+](CCC[N+](CC)(CC)CC)c3ccccc13)=C2.[Br-].[Br-]` [2c], the “sensitivity to an AP (APA), % decrease in fluorescence at the peak of an AP” value (730 nm excitation, compared with di-4-ANBDQPQ) is recorded as “higher than that of di-4-ANBDQPQ”. For the same compound, under “compared with di-4-ANBDQPQ, student's t-test, listed as ElectroFluor730p”, the “differences in AP kinetics (APRS, APD50, APD70, APD90)” value is reported as “no statistically significant differences in AP parameters excepting AP Amplitude”. Besides, the “inversion point (isosbestic point) of sensitivity” value (excitation 730, 590, 530 nm, exponential fit, listed as ElectroFluor730p) is “≈ 571 nm and ~571 nm”. For the setting “isolated mouse hearts”, the “pharmacological effects of the VSD” value is given as “no measurable pharmacological effects”.
